Reference: ChEMBL document CHEMBL1687756 (Antimicrob Agents Chemother, 2010)

Legend:
[1] = (§1) Plasma concentration in Beagle dog at 5 mg/kg administered intramuscularly after 3 months; format: ADME, organism-based, Canis lupus familiaris; parameters: dose 5 mg/kg, route intramuscular; details: im
Plasma = test: as §1; format: ADME, organism-based, Canis lupus familiaris; parameters: dose 5 mg/kg, route intramuscular; details: in vivo, im, 2191.5 h, BLD = below limit of detection
[2] = Ratio of drug level in lymph node mandibular to plasma in Beagle dog at 5 mg/kg, sc after 6 months; format: ADME, organism-based, Canis lupus familiaris; parameters: dose 5 mg/kg, route subcutaneous
[3] = Ratio of drug level in thymus to plasma in male Beagle dog at 400 mg/kg administered intramuscularly after 1 month; format: ADME, organism-based, Canis lupus familiaris; parameters: dose 400 mg/kg, route intramuscular; details: im
[4] = Cmax in Beagle dog at 5 mg/kg, sc after 176 days; format: ADME, organism-based, Canis lupus familiaris; parameters: dose 5 mg/kg, route subcutaneous; details: in vivo
[5] = Drug level in Beagle dog lymph node iliac at 5 mg/kg administered intramuscularly after 1 month; format: ADME, organism-based, Canis lupus familiaris; parameters: dose 5 mg/kg, route intramuscular; details: im, read-out: Drug uptake
[6] = Cmax in female dog at 200 mg administered intramuscularly after 85 days; details: in vivo, im
[7] = Drug level in Beagle dog skin at non-injected site at 5 mg/kg administered intramuscularly after 3 months; format: ADME, organism-based, Canis lupus familiaris, Zone of skin; parameters: dose 5 mg/kg, route intramuscular; details: im, read-out: Drug uptake
[8] = Drug level in Beagle dog thymus at 5 mg/kg administered intramuscularly after 6 months; format: ADME, organism-based, Canis lupus familiaris; parameters: dose 5 mg/kg, route intramuscular; details: im, read-out: Drug uptake
[9] = Drug level in Beagle dog liver at 5 mg/kg, sc after 3 months; format: ADME, organism-based, Canis lupus familiaris; parameters: dose 5 mg/kg, route subcutaneous; details: read-out: Drug uptake
[10] = AUC (0 to last) in female dog at 400 mg administered intramuscularly after 85 days; details: plasma, im
[11] = Drug level in Beagle dog lymph node popliteal at 5 mg/kg administered intramuscularly after 3 months; format: ADME, organism-based, Canis lupus familiaris; parameters: dose 5 mg/kg, route intramuscular; details: im, read-out: Drug uptake
[12] = Tmax in Beagle dog at 5 mg/kg administered intramuscularly after 176 days; format: ADME, organism-based, Canis lupus familiaris; parameters: dose 5 mg/kg, route intramuscular; details: in vivo, im
[13] = Ratio of drug level in thymus to plasma in female Beagle dog at 200 mg/kg, sc after 3 months; format: ADME, organism-based, Canis lupus familiaris; parameters: dose 200 mg/kg, route subcutaneous
[14] = Drug level in Beagle dog muscle at injected site at 5 mg/kg administered intramuscularly after 3 months; format: ADME, organism-based, Canis lupus familiaris, Muscle tissue; parameters: dose 5 mg/kg, route intramuscular; details: im, read-out: Drug uptake
[15] = Drug level in female Beagle dog spleen at 200 mg/kg administered intramuscularly after 3 months; format: ADME, organism-based, Canis lupus familiaris; parameters: dose 200 mg/kg, route intramuscular; details: im, read-out: Drug uptake
[16] = Drug level in Beagle dog lymph node popliteal at 5 mg/kg, sc after 3 months; format: ADME, organism-based, Canis lupus familiaris; parameters: dose 5 mg/kg, route subcutaneous; details: read-out: Drug uptake
[17] = Drug level in Beagle dog liver at 5 mg/kg administered intramuscularly after 6 months; format: ADME, organism-based, Canis lupus familiaris; parameters: dose 5 mg/kg, route intramuscular; details: im, read-out: Drug uptake
[18] = Drug level in Beagle dog liver at 5 mg/kg administered intramuscularly after 3 months; format: ADME, organism-based, Canis lupus familiaris; parameters: dose 5 mg/kg, route intramuscular; details: im, read-out: Drug uptake
[19] = Drug level in Beagle dog skin at injected site at 5 mg/kg administered intramuscularly after 6 months; format: ADME, organism-based, Canis lupus familiaris, Zone of skin; parameters: dose 5 mg/kg, route intramuscular; details: im, read-out: Drug uptake
[20] = (§2) Plasma concentration in Beagle dog at 5 mg/kg, sc after 3 months; format: ADME, organism-based, Canis lupus familiaris; parameters: dose 5 mg/kg, route subcutaneous
[21] = Tmax in male dog at 400 mg administered intramuscularly after 85 days; details: in vivo, im
[22] = Tmax in Beagle dog at 5 mg/kg administered intramuscularly after 184 days; format: ADME, organism-based, Canis lupus familiaris; parameters: dose 5 mg/kg, route intramuscular; details: in vivo, im
[23] = as §2; format: ADME, organism-based, Canis lupus familiaris; parameters: dose 5 mg/kg, route subcutaneous; remark: listed apart in the source
[24] = Ratio of drug level in thymus to plasma in female Beagle dog at 400 mg/kg administered intramuscularly after 1 month; format: ADME, organism-based, Canis lupus familiaris; parameters: dose 400 mg/kg, route intramuscular; details: im
[25] = Drug level in Beagle dog lymph node mandibular at 5 mg/kg administered intramuscularly after 3 months; format: ADME, organism-based, Canis lupus familiaris; parameters: dose 5 mg/kg, route intramuscular; details: im, read-out: Drug uptake
[26] = Drug level in Beagle dog skin at non-injected site at 5 mg/kg, sc after 3 months; format: ADME, organism-based, Canis lupus familiaris, Zone of skin; parameters: dose 5 mg/kg, route subcutaneous; details: read-out: Drug uptake
[27] = Drug level in Beagle dog lymph node axillar at 5 mg/kg administered intramuscularly after 6 months; format: ADME, organism-based, Canis lupus familiaris; parameters: dose 5 mg/kg, route intramuscular; details: axillary lymph node, im, read-out: Drug uptake
[28] = Drug level in male Beagle dog thymus at 400 mg/kg, sc after 3 months; format: ADME, organism-based, Canis lupus familiaris; parameters: dose 400 mg/kg, route subcutaneous; details: read-out: Drug uptake

## Cc1cc(/C=C/C#N)cc(C)c1Nc1ccnc(Nc2ccc(C#N)cc2)n1 [RILPIVIRINE]
[1]
  concentration at 2191.5 h: < 1 ng/mL
Plasma
  Cp: BLD
[2]
  Kp at 4383 h: 6.1
[3]
  Kp at 730.5 h: 4
[4]
  Cmax: 31.4 ng/mL
[5]
  concentration at 730.5 h: 19000 ng/g
[6]
  Cmax: 1140 ng/mL
[7]
  concentration at 2191.5 h: 12.4 ng/g
[8]
  concentration at 4383 h: 7.2 ng/g
[9]
  concentration at 2191.5 h: 45.6 ng/g
[10]
  AUC(0-t) at 2040 h: 265 µg·h/mL
[11]
  concentration at 2191.5 h: 13.7 ng/g
[12]
  Tmax: 0.5 h
[13]
  Kp at 2191.5 h: 4
[14]
  concentration at 2191.5 h: 142000 ng/g
[15]
  concentration at 2191.5 h: 22.1 ng/g
[16]
  concentration at 2191.5 h: 26.8 ng/g
[17]
  concentration at 4383 h: 11.6 ng/g
[18]
  concentration at 2191.5 h: 20.8 ng/g
[19]
  concentration at 4383 h: 9.5 ng/g
[20]
  concentration at 2191.5 h: 3.3 ng/mL
[21]
  Tmax: 17 h
[22]
  Tmax: 24 h
[23]
  concentration at 2191.5 h: 3.3 ng/mL
[24]
  Kp at 730.5 h: 6
[25]
  concentration at 2191.5 h: 10 ng/g
[26]
  concentration at 2191.5 h: 24.2 ng/g
[27]
  concentration at 4383 h: 12.2 ng/g
[28]
  concentration at 2191.5 h: 173 ng/g
